Reference: US3957785A, “Bβ-Pyrimidino-aminomethyl-10α-ergoline and 10α-methoxyergoline derivatives” (priority 1971, dated 1976)
Where “and” joins values, the source holds several entries; their conditions need not be identical. Equal values may be shown once. Read-outs that look alike come from different tables or passages of the source.

Columns and labels:
[1] = acute toxicity LD50 in rats; details: rat, in vivo
[2] = tested on: lethal effects caused by adrenaline; test: adrenolytic activity in vivo on the rat: reduction of lethal effects caused by adrenaline; details: read-out: ID50 (dose reducing by 50% the lethal effects caused by adrenaline)
Procedure: (§1) The adrenolytic activity of the compounds of the invention was also determined in vivo on the rat in comparison with dihydroergotamine and nicergoline. Table 2 reports the doses in mg/kg (ID50) able to reduce by 50% the lethal effects caused by adrenaline after oral (os) and intravenous (i.v.) administration of these compounds as compared with dihydroergotamine and with nicergoline, i.e., 1,6-dimethyl-8 -(5'-bromonicotinoyloxymethyl)-10 -methoxyergoline (Br. J. Pharmac, 34, 700, 1968).

[3] = tested on: isolated guinea pig seminal vescicle; test: inhibition of the spasmogen effect caused by adrenaline on isolated guinea pig seminal vescicle (adrenolytic activity in vitro); design: unit: μg/ml; details: isolated guinea pig seminal vescicle in physiological solution
Procedure: The compounds of the present invention have a high and prolonged adrenolytic activity and a low toxicity and are therefore useful in therapy. This adrenolytic activity was tested on several of the present compounds in vitro in comparison with dihydroergotamine on isolated guinea pig seminal vescicle suspended in a physiological solution.
Table 1 reports the values of concentrations, in μg/ml., which are able to produce a 50% inhibition (IC50) of the spasmogen effect caused by adrenaline.

[4] = tested on: hypertensive rat; test: hypotensive activity on the hypertensive rat; type: in vivo; details: po, read-out: Hypotensive Activity, Active Dose (dose causing a pressure drop of about 30-40 mmHg)
Procedure: The hypotensive activity was tested on the hypertensive rat; the reported data being the dose, expressed in mg/kg per os, which causes a pressure drop of about 30-40 mmHg.

[5] = tested on: lethal adrenaline dose; test: percentage of animals protected against lethal adrenaline dose, hours after administration; type: in vivo, rat
Procedure: as §1
Some of the compounds reported in Table 2 have a long lasting effect of up to 24 hours as shown by the data contained in Table 3.
Percentage of animals protected against lethal adrenaline dose

[6] = analgesic activity, writhing test; type: in vivo; details: for Analgesic Activity, Writhing, relative to D-propoxyphene: D-propoxyphene assigned the value of 1; for Analgesic Activity, Writhing, relative to morphine: morphine assigned the value of 1
Procedure: (§2) The analgesic activity was evaluated by means of the hot plate test and the writhing test, the data being given in comparison with morphine and D-propoxyphene.
(§3) In the hot plate and writhing tests, the comparison compounds morphine and D-propoxyphene have been arbitrarily assigned the value of 1. Thus, in the hot plate test, the compound 1,6-dimethyl-8β-(2-pyrimidino-aminomethyl)-10α-ergoline has the same activity as both morphine and D-propoxyphene, while in the writhing test that compound has 1/2 the activity of morphine and 5 times the activity of D-propoxyphene.

[7] = tested on: adrenalin; test: submaximal inhibiting dosage protecting 80% of rats against adrenalin injected 8 hours after administration; type: in vivo; details: Rattus norvegicus, po, read-out: ID (submaximal inhibiting dosage which protects 80% of the tested animals)
Procedure: This greater stability was confirmed by the determination of the submaximal inhibiting dosage which protects 80% of the tested animals (rats) against a single dose of 200 mg/Kg of body weight of adrenalin injected 8 hours after administration of the tested compounds according to the invention.

[8] = analgesic activity, hot plate test; type: in vivo
Procedure: as §2, §3

[9] = Arcamone et al. Bioch. Pharmac. 21, 2205, 1972; cited from earlier work
[10] = 0.5 mg/Kg per os, 1 hour after administration
[11] = 0.5 mg/Kg per os, 2 hours after administration
[12] = 0.5 mg/Kg per os, 4 hours after administration
[13] = 0.5 mg/Kg per os, 8 hours after administration
[14] = 0.1 mg/Kg per os, 1 hour after administration
[15] = 0.1 mg/Kg per os, 2 hours after administration
[16] = 0.5 mg/Kg per os, 0.5 hours after administration

Structure (SMILES) | LD50 ([1]; iv) [mg/kg] | LD50 ([1]; po, os) [mg/kg] | ED50 ([2]; iv) [mg/kg] | ED50 ([2]; po, os) [mg/kg] | TC50 (concentration producing 50% inhibition (IC50) of the spasmogen effect caused by adrenaline) [3] [μc/ml] | ED80 ([7]; 8 h) [mg/kg] | further results
COC12CC(CNc3ncccn3)CN(C)C1Cc1cn(C)c3cccc2c13 (stereo not drawn) [1,6-dimethyl-8β -(2-pyrimidino-aminomethyl)-10α -methoxyergoline] | 25 | 250 | 0.2 | 1 | 0.005 | – | –
COC12CC(CNc3ncc(Br)cn3)CN(C)C1Cc1cn(C)c3cccc2c13 (stereo not drawn) [1,6-dimethyl-8β -(5-bromo-2-pyrimidino-aminomethyl)-10α -methoxyergoline] | 50 | 230 | 0.08 | 0.32 | 0.005 | – | –
COC12CC(CNc3ncc(C#N)cn3)CN(C)C1Cc1cn(C)c3cccc2c13 (stereo not drawn) [1,6-dimethyl-8β -(5-cyano-2-pyrimidino-aminomethyl)-10α -methoxyergoline] | 38 | 160 | 0.015 | 0.2 | 0.0001 | 0.5 | ED (30-40 mmHg pressure drop) ([4]; Rattus norvegicus): 1 to 2.5 mg/kg; % survivors ([5]; 0.2 mg/Kg per os, 2 hours after administration): 100%; % survivors ([5]; 0.2 mg/Kg per os, 4 hours after administration): 90%; % survivors [5, 10]: 80%; % survivors [5, 11]: 90%; % survivors [5, 12]: 80%; % survivors [5, 13]: 80%; Analgesic Activity, Writhing, relative to D-propoxyphene [6]: 1; Analgesic Activity, Writhing, relative to morphine [6]: 0.2
Cc1cc(C)nc(NCC2CC3c4cccc5c4c(cn5C)CC3N(C)C2)n1 (stereo not drawn) [1,6-dimethyl-8β(4,6-dimethyl-2-pyrimidino-aminomethyl)-10α -ergoline] | – | – | – | 1.25 | – | – | % survivors ([5]; 2.5 mg/Kg per os, 1 hour after administration): 80%; % survivors ([5]; 2.5 mg/Kg per os, 2 hours after administration): 60%; % survivors ([5]; 2.5 mg/Kg per os, 4 hours after administration): 30%; % survivors ([5]; 5 mg/Kg per os, 1 hour after administration): 100%; % survivors ([5]; 5 mg/Kg per os, 2 hours after administration): 80%; % survivors ([5]; 5 mg/Kg per os, 4 hours after administration): 50%; % survivors ([5]; 5 mg/Kg per os, 8 hours after administration): 20%; % survivors ([5]; 10 mg/Kg per os, 1 hour after administration): 100%; % survivors ([5]; 10 mg/Kg per os, 2 hours after administration): 100%; % survivors ([5]; 10 mg/Kg per os, 4 hours after administration): 60%
CN1CC(CNc2ncccn2)CC2c3cccc4c3c(cn4C)CC21 (stereo not drawn) [1,6-dimethyl-8β-(2-pyrimidino-aminomethyl)-10α -ergoline] | – | – | – | – | – | – | ED (30-40 mmHg pressure drop) ([4]; hypertensive rat, per os): 5 to 10 mg/kg; Analgesic Activity, Writhing, relative to D-propoxyphene [6]: 5; Analgesic Activity, Writhing, relative to morphine [6]: 0.5 and 1/2
CN1CC(CNc2ncc(N)cn2)CC2c3cccc4c3c(cn4C)CC21 (stereo not drawn) [1,6-dimethyl-8β-(5-amino-2-pyrimidino-aminomethyl)-10α-ergoline] | 18 | 140 | 0.18 | 0.5 | – | 1 | –
CN1CC(CNc2ncc(Cl)cn2)CC2c3cccc4c3c(cn4C)CC21 (stereo not drawn) [1,6-dimethyl-8β-(5-chloro-2-pyrimidino-aminomethyl)-10α -ergoline] | – | – | – | 0.14 | – | 1 | –
CN1CC(CNc2ncc(C#N)cn2)CC2c3cccc4c3c(cn4C)CC21 (stereo not drawn) [1,6-dimethyl-8β-(5-cyano-2-pyrimidino-aminomethyl)-10α -ergoline] | 25 | 35 | 0.05 | 0.05 | 0.005 | – | ED (30-40 mmHg pressure drop) ([4]; Rattus norvegicus): 2.5 to 5 mg/kg
Cc1cnc(NCC2CC3c4cccc5c4c(cn5C)CC3N(C)C2)nc1 (stereo not drawn) [1,6-dimethyl-8β-(5-methyl-2-pyrimidino-aminomethyl)-10 α-ergoline] | 35 | 140 | 0.15 | 0.1 | – | – | ED (30-40 mmHg pressure drop) ([4]; hypertensive rat, per os): 5 to 10 mg/kg; Analgesic Activity, Hot plate, relative to D-propoxyphene ([8]; D-propoxyphene assigned the value of 1): 5; Analgesic Activity, Hot plate, relative to morphine ([8]; morphine assigned the value of 1): 1; Analgesic Activity, Writhing, relative to D-propoxyphene [6]: 5; Analgesic Activity, Writhing, relative to morphine [6]: 0.5
COC12CC(CNc3ncc(C)cn3)CN(C)C1Cc1cn(C)c3cccc2c13 (stereo not drawn) [1,6-dimethyl-8β-(5-methyl-2-pyrimidino-aminomethyl)-10α -methoxyergoline] | 18 | – | 0.1 | 0.1 | 0.001 | – | –
CN1CC(CNc2ncc([N+](=O)[O-])cn2)CC2c3cccc4c3c(cn4C)CC21 (stereo not drawn) [1,6-dimethyl-8β-(5-nitro-2-pyrimidino-aminomethyl)-10α -ergoline] | – | – | 0.09 | 0.04 | 0.007 | 0.5 | % survivors ([5]; 0.1 mg/Kg per os, 0.5 hours after administration): 50%; % survivors [5, 14]: 90%; % survivors [5, 15]: 60%; % survivors ([5]; 0.1 mg/Kg per os, 4 hours after administration): 70%; % survivors ([5]; 0.1 mg/Kg per os, 8 hours after administration): 60%; % survivors ([5]; 0.1 mg/Kg per os, 16 hours after administration): 10%; % survivors [5, 16]: 100%; % survivors [5, 10]: 100%; % survivors [5, 11]: 100%; % survivors [5, 12]: 90%; % survivors [5, 13]: 80%; % survivors ([5]; 0.5 mg/Kg per os, 16 hours after administration): 30%; % survivors ([5]; 0.5 mg/Kg per os, 24 hours after administration): 20%
COC12CC(CNc3ncc([N+](=O)[O-])cn3)CN(C)C1Cc1cn(C)c3cccc2c13 (stereo not drawn) [1,6-dimethyl-8β-(5-nitro-2-pyrimidino-aminomethyl)-10α -methoxyergoline] | 28 | 200 | 0.2 | < 0.1 | 0.001 | – | ED (30-40 mmHg pressure drop) ([4]; Rattus norvegicus): 1 to 2.5 mg/kg; % survivors [5, 14]: 70%; % survivors [5, 15]: 80%; % survivors [5, 16]: 100%; % survivors [5, 11]: 100%; % survivors [5, 12]: 90%; % survivors [5, 13]: 40%
CN1C[C@H](C(=O)N[C@]2(C)O[C@@]3(O)[C@@H]4CCCN4C(=O)[C@H](Cc4ccccc4)N3C2=O)C[C@@H]2c3cccc4[nH]cc(c34)C[C@H]21 [dihydroergotamine, reference compound] | – | – | 0.08 | 15 | 0.015 | > 20 | –
CO[C@]12C[C@@H](COC(=O)c3cncc(Br)c3)CN(C)[C@@H]1Cc1cn(C)c3cccc2c13 [nicergoline, 1,6-dimethyl-8β-(5'-bromonicotinoyloxymethyl) 10α-methoxyergoline, reference compound] | – | – | 0.024 | 7 | – | – | metabolism in the presence of blood in vitro [9]: rapidly metabolized; ED80 ([7]; peros in rats after 8 hours, single dose of 200 mg/Kg adrenalin): > 20 mg/kg
